Measured values from ChEMBL document CHEMBL1148618, “Novel benzodiazepine photoaffinity probe stereoselectively labels a site deep within the membrane-spanning domain of the cholecystokinin receptor” (J Med Chem, 2006).

Experiments:
[1] = biological target: T1, Cholecystokinin receptor type A (Rattus norvegicus) (UniProt P30551); experiment: Activity at CCK receptor in SD rat at 1 uM expressed in pancreatic acinar cell line; format: functional; conditions: filed as antagonist
T1 sequence (whole entry): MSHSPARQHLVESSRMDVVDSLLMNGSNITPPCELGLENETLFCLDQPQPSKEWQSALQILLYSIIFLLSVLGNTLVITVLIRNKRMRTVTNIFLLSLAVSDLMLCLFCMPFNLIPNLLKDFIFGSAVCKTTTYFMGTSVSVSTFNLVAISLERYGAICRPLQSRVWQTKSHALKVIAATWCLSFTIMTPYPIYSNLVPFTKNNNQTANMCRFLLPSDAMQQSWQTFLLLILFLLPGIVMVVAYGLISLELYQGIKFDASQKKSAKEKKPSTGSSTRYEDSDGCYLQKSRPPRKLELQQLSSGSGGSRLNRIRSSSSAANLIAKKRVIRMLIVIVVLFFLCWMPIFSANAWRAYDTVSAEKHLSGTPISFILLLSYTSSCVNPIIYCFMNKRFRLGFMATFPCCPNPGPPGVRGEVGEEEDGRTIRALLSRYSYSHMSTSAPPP

[2] = biological target: T2, Cholecystokinin receptor type A (Rattus norvegicus, UniProt P30551); experiment: Displacement of [125I]D-Tyr-Gly-[(Nle28,31)CCK-26-33] from rat CCK receptor expressed in CHO cells; format: cell-based
T2 sequence (P30551 whole entry): T1 sequence (whole entry)

[3] = biological target: T2, Cholecystokinin receptor type A; experiment: Intrinsic agonistic activity at CCK receptor in SD rat at 1 uM expressed in pancreatic acinar cell line; format: functional

Activity [1] | EC50 [3] | Compound | IC50 [2]
Antagonist | – | COc1ccc(N(C(=O)CN2C(=O)[C@@H](NC(=O)Nc3cccc(C(=O)c4ccccc4)c3)C(=O)N(c3ccccc3)c3ccccc32)C(C)C)cc1 | 710 nM
– | – | COc1ccc(N(C)C(=O)CN2C(=O)[C@H](NC(=O)Nc3cccc(C(=O)c4ccccc4)c3)C(=O)N(c3ccccc3)c3ccccc32)cc1 | 490 nM
– | 150 nM | COc1ccc(N(C(=O)CN2C(=O)[C@H](NC(=O)Nc3cccc(C(=O)c4ccccc4)c3)C(=O)N(c3ccccc3)c3ccccc32)C(C)C)cc1 | 61 nM
– | – | COc1ccc(N(C)C(=O)CN2C(=O)[C@@H](NC(=O)Nc3cccc(C(=O)c4ccccc4)c3)C(=O)N(c3ccccc3)c3ccccc32)cc1 | 470 nM
